Assay: Cytotoxicity against human HL60 cells after 48 hrs by MTT assay
Assay type: functional, cell-based
Settings: HL-60, 48 h

## CC(C)CCN1Cc2c(ccc([C@@]3(C)CCCC(C)(C)C3)c2[C@@H](C)C(=O)O)C1=O
  IC50: > 10 µM

## CC(C)CN1Cc2c(ccc([C@@]3(C)CCCC(C)(C)C3)c2[C@@H](C)C(=O)O)C1=O
  IC50: > 10 µM

## C[C@@H](C(=O)O)c1c([C@@]2(C)CCCC(C)(C)C2)ccc2c1C(=O)N(CC(=O)O)C2
  IC50: > 10 µM

## C[C@@H](C(=O)O)c1c([C@@]2(C)CCCC(C)(C)C2)ccc2c1CN(CCN)C2=O
  IC50: > 10 µM

## COC(=O)CN1Cc2c(ccc([C@@]3(C)CCCC(C)(C)C3)c2[C@@H](C)C(=O)O)C1=O
  IC50: > 10 µM

## C[C@@H](C(=O)O)c1c([C@@]2(C)CCCC(C)(C)C2)ccc2c1CN(CC(=O)O)C2=O
  IC50: > 10 µM

## C[C@@H](C(=O)O)c1c([C@@]2(C)CCCC(C)(C)C2)ccc2c1CN(CCc1ccccc1)C2=O
  IC50: > 10 µM

## CCC(C)CN1Cc2c(ccc([C@@]3(C)CCCC(C)(C)C3)c2[C@@H](C)C(=O)O)C1=O (some centres undefined)
  IC50: > 10 µM

## C[C@@H](C(=O)O)c1c([C@@]2(C)CCCC(C)(C)C2)ccc2c1CN(CCc1cnc[nH]1)C2=O
  IC50: > 10 µM

Source: ChEMBL document CHEMBL3351925, “The Oxeatamides: nitrogenous spongian diterpenes from the New Zealand marine sponge Darwinella oxeata” (J Nat Prod, 2014)
